Assay results as given in PubChem BioAssay AID1259411 (Chemical Carcinogenesis Research Information System (CCRIS), 2018).
Activity calls are given as the source filed them. No rule for the calls is given here.

Test system: rodent carcinogenicity bioassays, tumor incidence
Assay: CCRIS carcinogenicity studies
Summary of the method: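 NCI-built, expert-reviewed records of carcinogenicity and related test outcomes (mutagenicity, tumor promotion/inhibition) compiled from published and report sources, historical span 1985-2011, not updated.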

Measured: carcinogen call

O=NN1CCCCCC1
active: Species: MOUSE, Strain/Sex: NZB/FEMALE, Route: ORAL, Dose: 0, 1.56 NMOL IN DRINKING WATER 5D/WK FOR 8 WK FOR A TOTAL DOSE OF 0, 6.4 MILLIMOLAR/KG (STUDY DURATION: 400-600 D), Dose: 0, 1.56 NMOL IN DRINKING WATER 5D/WK FOR 8 WK FOR A TOTAL DOSE OF 0, 6.4 MILLIMOLAR/KG (STUDY DURATION: 400-600 D), Tumor Site: Type of Lesion: OROPHARYNX: PAPILLOMA OR CARCINOMA, ESOPHAGUS: PAPILLOMA OR CARCINOMA, STOMACH: SQUAMOUS CELL CARCINOMA, LIVER: HEPATOCE, Tumor Site: Type of Lesion: OROPHARYNX: PAPILLOMA OR CARCINOMA, ESOPHAGUS: PAPILLOMA OR CARCINOMA, STOMACH: SQUAMOUS CELL CARCINOMA, LIVER: HEPATOCE active; positive | Species: MOUSE, Strain/Sex: NZB/MALE, Route: ORAL, Dose: 0, 1.56 NMOL IN DRINKING WATER 5D/WK FOR 8 WK FOR A TOTAL DOSE OF 0, 5.4 MILLIMOLAR/KG (STUDY DURATION: 400-600 D), Dose: 0, 1.56 NMOL IN DRINKING WATER 5D/WK FOR 8 WK FOR A TOTAL DOSE OF 0, 5.4 MILLIMOLAR/KG (STUDY DURATION: 400-600 D), Tumor Site: Type of Lesion: ESOPHAGUS: PAPILLOMA OR CARCINOMA, STOMACH: SQUAMOUS CELL CARCINOMA, LIVER: HEPATOCELLULAR TUMOR, LUNG: ALVEOLAR ADENOMA, Tumor Site: Type of Lesion: ESOPHAGUS: PAPILLOMA OR CARCINOMA, STOMACH: SQUAMOUS CELL CARCINOMA, LIVER: HEPATOCELLULAR TUMOR, LUNG: ALVEOLAR ADENOMA active; positive | Species: MOUSE, Strain/Sex: NZC/FEMALE, Route: ORAL, Dose: 0, 1.56 NMOL IN DRINKING WATER 5D/WK FOR 8 WK FOR A TOTAL DOSE OF 0, 5.3 MILLIMOLAR/KG (STUDY DURATION: 600-800 D), Dose: 0, 1.56 NMOL IN DRINKING WATER 5D/WK FOR 8 WK FOR A TOTAL DOSE OF 0, 5.3 MILLIMOLAR/KG (STUDY DURATION: 600-800 D), Tumor Site: Type of Lesion: ESOPHAGUS: CARCINOMA OR PAPILLOMA, STOMACH: SQUAMOUS CELL CARCINOMA, LIVER: HEPATOCELLULAR TUMOR, Tumor Site: Type of Lesion: ESOPHAGUS: CARCINOMA OR PAPILLOMA, STOMACH: SQUAMOUS CELL CARCINOMA, LIVER: HEPATOCELLULAR TUMOR active; positive | Species: MOUSE, Strain/Sex: NZC/MALE, Route: ORAL, Dose: 0, 1.56 NMOL IN DRINKING WATER 5D/WK FOR 8 WK FOR A TOTAL DOSE OF 0, 6 MILLIMOLAR/KG (STUDY DURATION: 600-800 D), Dose: 0, 1.56 NMOL IN DRINKING WATER 5D/WK FOR 8 WK FOR A TOTAL DOSE OF 0, 6 MILLIMOLAR/KG (STUDY DURATION: 600-800 D), Tumor Site: Type of Lesion: OROPHARYNX: PAPILLOMA OR CARCINOMA, ESOPHAGUS: PAPILLOMA OR CARCINOMA, STOMACH: SQUAMOUS CELL CARCINOMA, LIVER: HEPATOCE, Tumor Site: Type of Lesion: OROPHARYNX: PAPILLOMA OR CARCINOMA, ESOPHAGUS: PAPILLOMA OR CARCINOMA, STOMACH: SQUAMOUS CELL CARCINOMA, LIVER: HEPATOCE active; positive | Species: MOUSE, Strain/Sex: NZO/FEMALE, Route: ORAL, Dose: 0, 1.56 NMOL IN DRINKING WATER 5D/WK FOR 8 WK FOR A TOTAL DOSE OF 0: 6.3 MILLIMOLAR/KG (STUDY DURATION: 600-800 D), Tumor Site: Type of Lesion: OROPHARYNX: PAPILLOMA OR CARCINOMA, ESOPHAGUS: PAPILLOMA OR CARCINOMA, STOMACH: SQUAMOUS CELL CARCINOMA, LIVER: HEPATOCE, Tumor Site: Type of Lesion: OROPHARYNX: PAPILLOMA OR CARCINOMA, ESOPHAGUS: PAPILLOMA OR CARCINOMA, STOMACH: SQUAMOUS CELL CARCINOMA, LIVER: HEPATOCE active; positive | Species: MOUSE, Strain/Sex: NZO/FEMALE, Route: ORAL, Dose: 0, 50 MG/L IN DRINKING WATER 5 D/WK FOR 32 WK (TOTAL DOSE: 52 MG) (STUDY DURATION: 1.5 YR), Tumor Site: Type of Lesion: OROPHARYNX: SQUAMOUS CELL CARCINOMA, SQUAMOUS CELL ADENOMA, STOMACH: SQUAMOUS CELL CARCINOMA, SQUAMOUS CELL ADENOMA, ESO, Tumor Site: Type of Lesion: OROPHARYNX: SQUAMOUS CELL CARCINOMA, SQUAMOUS CELL ADENOMA, STOMACH: SQUAMOUS CELL CARCINOMA, SQUAMOUS CELL ADENOMA, ESO active; positive | Species: MOUSE, Strain/Sex: NZO/FEMALE, Route: ORAL, Dose: 0, 200 MG/L IN DRINKING WATER 5 D/WK FOR 8 WK (TOTAL DOSE: 52 MG) (STUDY DURATION: 2 YR), Tumor Site: Type of Lesion: OROPHARYNX: SQUAMOUS CELL CARCINOMA, SQUAMOUS CELL ADENOMA, STOMACH: SQUAMOUS CELL CARCINOMA, SQUAMOUS CELL ADENOMA, ESO, Tumor Site: Type of Lesion: OROPHARYNX: SQUAMOUS CELL CARCINOMA, SQUAMOUS CELL ADENOMA, STOMACH: SQUAMOUS CELL CARCINOMA, SQUAMOUS CELL ADENOMA, ESO active; positive | Species: MOUSE, Strain/Sex: NZO/MALE, Route: ORAL, Dose: 0, 1.56 NMOL IN DRINKING WATER 5D/WK FOR 8 WK FOR A TOTAL DOSE OF 0, 6.1 MILLIMOLAR/KG (STUDY DURATION: 600-800 D), Dose: 0, 1.56 NMOL IN DRINKING WATER 5D/WK FOR 8 WK FOR A TOTAL DOSE OF 0, 6.1 MILLIMOLAR/KG (STUDY DURATION: 600-800 D), Tumor Site: Type of Lesion: OROPHARYNX: PAPILLOMA OR CARCINOMA, ESOPHAGUS: PAPILLOMA OR CARCINOMA, STOMACH: SQUAMOUS CELL CARCINOMA, LIVER: HEPATOCE, Tumor Site: Type of Lesion: OROPHARYNX: PAPILLOMA OR CARCINOMA, ESOPHAGUS: PAPILLOMA OR CARCINOMA, STOMACH: SQUAMOUS CELL CARCINOMA, LIVER: HEPATOCE active; positive | Species: MOUSE, Strain/Sex: NZO/MALE, Route: ORAL, Dose: 0, 50 MG/L IN DRINKING WATER 5 D/WK FOR 52 WK (TOTAL DOSE: 52 MG) (STUDY DURATION: 1.5 YR), Tumor Site: Type of Lesion: OROPHARYNX: SQUAMOUS CELL CARCINOMA, SQUAMOUS CELL ADENOMA, STOMACH: SQUAMOUS CELL CARCINOMA, SQUAMOUS CELL ADENOMA, ESO, Tumor Site: Type of Lesion: OROPHARYNX: SQUAMOUS CELL CARCINOMA, SQUAMOUS CELL ADENOMA, STOMACH: SQUAMOUS CELL CARCINOMA, SQUAMOUS CELL ADENOMA, ESO active; positive | Species: MOUSE, Strain/Sex: NZO/MALE, Route: ORAL, Dose: 0, 200 MG/L IN DRINKING WATER 5 D/WK FOR 8 WK (TOTAL DOSE: 52 MG) (STUDY DURATION: 2 YR), Tumor Site: Type of Lesion: OROPHARYNX: SQUAMOUS CELL CARCINOMA, SQUAMOUS CELL ADENOMA, STOMACH: SQUAMOUS CELL CARCINOMA, SQUAMOUS CELL ADENOMA, ESO, Tumor Site: Type of Lesion: OROPHARYNX: SQUAMOUS CELL CARCINOMA, SQUAMOUS CELL ADENOMA, STOMACH: SQUAMOUS CELL CARCINOMA, SQUAMOUS CELL ADENOMA, ESO active; positive | Species: MOUSE, Strain/Sex: NZY/FEMALE, Route: ORAL, Dose: 0, 1.56 NMOL IN DRINKING WATER 5D/WK FOR 8 WK FOR A TOTAL DOSE OF 0, 5.2 MILLIMOLAR/KG (STUDY DURATION: 600-800 D), Dose: 0, 1.56 NMOL IN DRINKING WATER 5D/WK FOR 8 WK FOR A TOTAL DOSE OF 0, 5.2 MILLIMOLAR/KG (STUDY DURATION: 600-800 D), Tumor Site: Type of Lesion: ESOPHAGUS: PAPILLOMA OR CARCINOMA, STOMACH: SQUAMOUS CELL CARCINOMA active; positive | Species: MOUSE, Strain/Sex: NZY/MALE, Route: ORAL, Dose: 0, 1.56 NMOL IN DRINKING WATER 5D/WK FOR 8 WK FOR A TOTAL DOSE OF 0, 5.4 MILLIMOLAR/KG (STUDY DURATION: 600-800 D), Dose: 0, 1.56 NMOL IN DRINKING WATER 5D/WK FOR 8 WK FOR A TOTAL DOSE OF 0, 5.4 MILLIMOLAR/KG (STUDY DURATION: 600-800 D), Tumor Site: Type of Lesion: ESOPHAGUS: PAPILLOMA OR CARCINOMA, STOMACH: SQUAMOUS CELL CARCINOMA, LIVER: HEPATOCELLULAR TUMOR, Tumor Site: Type of Lesion: ESOPHAGUS: PAPILLOMA OR CARCINOMA, STOMACH: SQUAMOUS CELL CARCINOMA, LIVER: HEPATOCELLULAR TUMOR active; positive | Species: RAT, Strain/Sex: F344/FEMALE, Route: ORAL, Dose: 0.9 MM (112 MG/L) IN DRINKING WATER 5/WK FOR 28 WK, Tumor Site: Type of Lesion: LIVER: CARCINOMA, SARCOMA, ESOPHAGUS: PAPILLOMA, CARCINOMA active; positive

CCCN(COC(C)=O)N=O
active: Species: RAT, Strain/Sex: F344/FEMALE, Route: SUBCUTANEOUS, Dose: 6.1 MG/KG 1/WK FOR 10 WK, Tumor Site: Type of Lesion: INJECTION SITE: MALIGNANT FIBROUS HISTIOCYTOMA, LUNG: ADENOMA, ADENOCARCINOMA OR SQUAMOUS CELL CARCINOMA, THYROID GLAND:, Tumor Site: Type of Lesion: INJECTION SITE: MALIGNANT FIBROUS HISTIOCYTOMA, LUNG: ADENOMA, ADENOCARCINOMA OR SQUAMOUS CELL CARCINOMA, THYROID GLAND: active; positive | Species: RAT, Strain/Sex: F344/MALE, Route: SUBCUTANEOUS, Dose: 6.1 MG/KG 1/WK FOR 10 WK, Tumor Site: Type of Lesion: INJECTION SITE: MALIGNANT FIBROUS HISTIOCYTOMA, LUNG: ADENOMA, ADENOCARCINOMA OR SQUAMOUS CELL CARCINOMA active; positive
